Measurements from US20140045832A1, “Insulin-Like Growth Factor-1 Receptor Inhibitors” (PIRAMAL ENTERPRISES LIMITED, priority 2011, published 2014).

Assays:
human IGF-1R = target: T1, human IGF-1R (Homo sapiens, UniProt P08069); assay: In vitro IGF-1R kinase assay (HTRF); type: biochemical; conditions: intracellular kinase domain GST fusion, ATP 20 μM, 1 hour at 23° C., read-out: IGFIR-Activity
T1 construct: IGFRK and IRK enzyme used for the assay was intracellular kinase domain of human IGF-1R and human IR; made in house
T1 sequence (P08069 999-1274 limits assumed): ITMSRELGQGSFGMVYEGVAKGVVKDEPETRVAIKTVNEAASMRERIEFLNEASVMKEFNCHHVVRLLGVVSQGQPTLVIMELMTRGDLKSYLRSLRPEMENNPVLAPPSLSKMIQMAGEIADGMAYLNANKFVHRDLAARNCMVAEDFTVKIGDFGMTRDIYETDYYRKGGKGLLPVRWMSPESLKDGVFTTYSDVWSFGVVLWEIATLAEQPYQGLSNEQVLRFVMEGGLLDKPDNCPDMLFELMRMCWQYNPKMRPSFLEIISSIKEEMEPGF
Protocol: The in vitro kinase assays using IGF-1R and IR kinase GST fusion proteins were conducted using a homogeneous time-resolved fluorescence (HTRF) format. […] The standard enzyme reaction buffer consisted of 50 mM Tris HCL (pH: 7.4), 1 mM EGTA, 10 mM MgCl2, 2 mM DTT, 0.01% Tween-20, IGF-1R/IR kinase enzyme, poly GT peptide substrate (Perkin Elmer [Ulight Glu-Tyr (4:1)]n) and ATP [concentration equivalent to Kmapp]. […] Briefly, 2.5 μL enzyme and 2.5 μL inhibitor was pre-incubated for 10 minutes at 23° C. followed by the addition of 2.5 μL of poly GT substrate (final concentration of 50 nM). Reaction was initiated with the addition of 2.5 μL of ATP (final concentration of 20 μM for IGF-1R assay and 10 μM for IR assay). After 1 hour incubation at 23° C., the kinase reaction was stopped with the addition of 5 μL EDTA (final concentration of 10 mM in 20 μL). Europium cryptate—labeled antiphosphotyrosine antibody PY20 (5 μL) was added (final concentration of 2 nM) and the mixture was allowed to equilibrate for 1 hour at 23° C. followed by reading the plate in an Envision plate reader. The intensity of light emission at 665 nm was directly proportional to the level of substrate phosphorylation. The IC50 values for inhibitors were determined by a four-parameter sigmoidal curve fit (Sigma plot or Graph pad).
IGFRK and IRK enzyme used for the assay was intracellular kinase domain of human IGF-1R and human IR cloned and expressed as GST fusion proteins using the baculovirus expression system and purified using glutathione—Sepharose column.

CYP3A4 = target: T2, CYP3A4 (Homo sapiens, UniProt P08684); assay: CYP inhibition fluorescence assay (rhCYP450, Vivid Invitrogen kit); type: in vitro ADME; conditions: recombinant human CYP3A4, 10 μM compound, read-out: % inhibition of CYP 3A4 at 10 μM
T2 construct: purchased Invitrogen (Vivid screening kits)
T2 sequence (P08684 whole entry): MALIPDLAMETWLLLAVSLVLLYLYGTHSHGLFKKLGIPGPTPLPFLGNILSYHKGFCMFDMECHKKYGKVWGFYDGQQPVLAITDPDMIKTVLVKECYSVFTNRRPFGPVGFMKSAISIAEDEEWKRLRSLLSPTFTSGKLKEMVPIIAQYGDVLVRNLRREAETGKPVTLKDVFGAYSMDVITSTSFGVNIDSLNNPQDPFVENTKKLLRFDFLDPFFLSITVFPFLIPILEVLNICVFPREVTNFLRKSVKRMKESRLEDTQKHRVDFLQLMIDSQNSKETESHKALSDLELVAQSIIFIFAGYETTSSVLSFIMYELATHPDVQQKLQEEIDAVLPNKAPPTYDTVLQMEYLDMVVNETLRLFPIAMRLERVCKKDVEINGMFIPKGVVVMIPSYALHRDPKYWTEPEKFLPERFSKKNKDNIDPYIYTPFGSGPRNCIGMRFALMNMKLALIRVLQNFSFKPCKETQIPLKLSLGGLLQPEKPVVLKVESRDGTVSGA
Protocol: The % inhibition @ 10 μM data was generated from an rhCYP450/fluorescence assay according to the Vivid Invitrogen screening kits. The compounds were screened against CYP 3A4 isoform because CYP3A4 is responsible for the metabolism of approximately 50-60% of clinical drugs. The lower the percentage inhibition, the lower the CYP450 inhibitory liability of that specific compound.

IC50 (human IGF-1R) | inhibition at 10 µM (CYP3A4) | SMILES
55.8 nM | – | CC(C)(CC(=O)O)CC(=O)Nc1cc(Cl)cc2c(S(=O)(=O)N3CCO[C@H](COc4ccccc4)C3)c(C(N)=O)[nH]c12 [Compound 9, (S)-5-(2-carbamoyl-5-chloro-3-(2-(phenoxymethyl)morpholinosulfonyl)-1H-indol-7-ylamino)-3,3-dimethyl-5-oxopentanoic acid]
2.6 nM | – | NC(=O)c1[nH]c2c(NCCC(=O)O)cc(Cl)cc2c1S(=O)(=O)N1CCO[C@H](COc2ccccc2)C1 [Compound 16, (S)-3-(2-carbamoyl-5-chloro-3-(2-(phenoxymethyl)morpholinosulfonyl)-1H-indol-7-ylamino)propanoic acid]
< 100 nM | – | CCOC(=O)CCCC(=O)Nc1cc(Cl)cc2c(S(=O)(=O)N3CCO[C@H](COc4ccccc4)C3)c(C(N)=O)[nH]c12 [Compound 15, (S)-ethyl 5-(2-carbamoyl-5-chloro-3-(2-(phenoxymethyl)morpholinosulfonyl)-1H-indol-7-ylamino)-5-oxopentanoate]
> 100 nM | – | NC(=O)c1[nH]c2c(NC3CCCC3)cc(Cl)cc2c1S(=O)(=O)N1CCO[C@H](COc2ccccc2)C1 [Compound 24, (S)-5-chloro-7-(cyclopentylamino)-3-(2-(phenoxymethyl)morpholinosulfonyl)-1H-indole-2-carboxamide]
> 100 nM | – | NC(=O)c1[nH]c2c(NCC3CCCCC3)cc(Cl)cc2c1S(=O)(=O)N1CCO[C@H](COc2ccccc2)C1 [Compound 22, (S)-5-chloro-7-(cyclohexylmethylamino)-3-(2-(phenoxymethyl)morpholinosulfonyl)-1H-indole-2-carboxamide]
10 nM | 15% | NC(=O)c1[nH]c2c(NC(=O)CCCC(=O)O)cc(Cl)cc2c1S(=O)(=O)N1CCO[C@H](COc2ccccc2)C1 [Compound 11, (S)-5-(2-carbamoyl-5-chloro-3-(2-(phenoxymethyl)morpholinosulfonyl)-1H-indol-7-ylamino)-5-oxopentanoic acid]
32.9 nM | – | NC(=O)c1[nH]c2c(NC3CCN(C(=O)NCC4CCCCC4)CC3)cc(Cl)cc2c1S(=O)(=O)N1CCO[C@H](COc2ccccc2)C1 [Compound 29, (S)-5-chloro-7-(1-(cyclohexylmethylcarbamoyl)piperidin-4-ylamino)-3-(2-(phenoxymethyl)morpholinosulfonyl)-1H-indole-2-carboxamide]
> 100 nM | – | N#CCC(=O)Nc1cc(Cl)cc2c(S(=O)(=O)N3CCO[C@H](COc4ccccc4)C3)c(C(N)=O)[nH]c12 [Compound 14, (S)-5-chloro-7-(2-cyanoacetamido)-3-(2-(phenoxymethyl)morpholinosulfonyl)-1H-indole-2-carboxamide]
> 100 nM | – | NC(=O)c1[nH]c2c(NC3CCCCC3)cc(Cl)cc2c1S(=O)(=O)N1CCO[C@H](COc2ccccc2)C1 [Compound 21, (S)-5-chloro-7-(cyclohexylamino)-3-(2-(phenoxymethyl)morpholinosulfonyl)-1H-indole-2-carboxamide]
< 100 nM | – | CCOC(=O)N1CCC(Nc2cc(F)cc3c(S(=O)(=O)N4CCO[C@H](COc5ccccc5)C4)c(C(N)=O)[nH]c23)CC1 [Compound 33, (S)-ethyl 4-(2-carbamoyl-5-fluoro-3-(2-(phenoxymethyl)morpholinosulfonyl)-1H-indol-7-ylamino)piperidine-1-carboxylate]
11.5 nM | – | NC(=O)CCNc1cc(Cl)cc2c(S(=O)(=O)N3CCO[C@H](COc4ccccc4)C3)c(C(N)=O)[nH]c12 [Compound 17, (S)-7-(3-amino-3-oxopropylamino)-5-chloro-3-(2-(phenoxymethyl)morpholinosulfonyl)-1H-indole-2-carboxamide]
7.6 nM | 46% | NC(=O)c1[nH]c2c(NC(=O)CCCC(=O)N3CCOCC3)cc(Cl)cc2c1S(=O)(=O)N1CCO[C@H](COc2ccccc2)C1 [Compound 13, (S)-5-chloro-7-(5-morpholino-5-oxopentanamido)-3-(2-(phenoxymethyl)morpholinosulfonyl)-1H-indole-2-carboxamide]
> 100 nM | – | NC(=O)c1[nH]c2c(NCC3(N)CCCC3)cc(Cl)cc2c1S(=O)(=O)N1CCO[C@H](COc2ccccc2)C1 [Compound 25, (S)-7-((1-aminocyclopentyl)methylamino)-5-chloro-3-(2-(phenoxymethyl)morpholinosulfonyl)-1H-indole-2-carboxamide]
9.8 nM | – | CC(C)(C)NC(=O)N1CCC(Nc2cc(Cl)cc3c(S(=O)(=O)N4CCO[C@H](COc5ccccc5)C4)c(C(N)=O)[nH]c23)CC1 [Compound 27, (S)-7-(1-(tert-butylcarbamoyl)piperidin-4-ylamino)-5-chloro-3-(2-(phenoxymethyl)morpholinosulfonyl)-1H-indole-2-carboxamide]
39 nM | – | CC(C)CN1CCC(Nc2cc(Cl)cc3c(S(=O)(=O)N4CCO[C@H](COc5ccccc5)C4)c(C(N)=O)[nH]c23)CC1 [Compound 31, (S)-5-chloro-7-(1-isobutylpiperidin-4-ylamino)-3-(2-(phenoxymethyl)morpholinosulfonyl)-1H-indole-2-carboxamide]
29.9 nM | – | CC(C)(CC(=O)Nc1cc(Cl)cc2c(S(=O)(=O)N3CCO[C@H](COc4ccccc4)C3)c(C(N)=O)[nH]c12)C(=O)O [Compound 10, (S)-4-(2-carbamoyl-5-chloro-3-(2-(phenoxymethyl)morpholinosulfonyl)-1H-indol-7-ylamino)-2,2-dimethyl-4-oxobutanoic acid]
> 100 nM | – | CCOC(=O)CCCNc1cc(Cl)cc2c(S(=O)(=O)N3CCO[C@H](COc4ccccc4)C3)c(C(N)=O)[nH]c12 [Compound 18, (S)-ethyl 4-(2-carbamoyl-5-chloro-3-(2-(phenoxymethyl)morpholinosulfonyl)-1H-indol-7-ylamino)butanoate]
6.6 nM | 0% | NC(=O)c1[nH]c2c(NC(=O)CCC(=O)O)cc(Cl)cc2c1S(=O)(=O)N1CCO[C@H](COc2ccccc2)C1 [Compound 8, (S)-4-(2-carbamoyl-5-chloro-3-(2-(phenoxymethyl)morpholinosulfonyl)-1H-indol-7-ylamino)-4-oxobutanoic acid]
< 100 nM | – | NC(=O)c1[nH]c2c(NCc3ccc(C(=O)O)cc3)cc(Cl)cc2c1S(=O)(=O)N1CCO[C@H](COc2ccccc2)C1 [Compound 26, (S)-4-((2-carbamoyl-5-chloro-3-(2-(phenoxymethyl)morpholinosulfonyl)-1H-indol-7-ylamino)methyl)benzoic acid]
48.7 nM | – | NC(=O)c1[nH]c2c(NC3CCNC3)cc(Cl)cc2c1S(=O)(=O)N1CCO[C@H](COc2ccccc2)C1 (stereo partly drawn) [Compound 32, 5-chloro-3-((S)-2-(phenoxymethyl)morpholinosulfonyl)-7-(pyrrolidin-3-ylamino)-1H-indole-2-carboxamide]
22 nM | – | NC(=O)c1[nH]c2c(NC3CCNCC3)cc(Cl)cc2c1S(=O)(=O)N1CCO[C@H](COc2ccccc2)C1 [Compound 36, (S)-5-chloro-3-(2-(phenoxymethyl)morpholinosulfonyl)-7-(piperidin-4-ylamino)-1H-indole-2-carboxamide]
> 100 nM | – | NC(=O)c1[nH]c2c(NCc3ccc(F)cc3)cc(Cl)cc2c1S(=O)(=O)N1CCO[C@H](COc2ccccc2)C1 [Compound 30, (S)-5-chloro-7-(4-fluorobenzylamino)-3-(2-(phenoxymethyl)morpholinosulfonyl)-1H-indole-2-carboxamide]
1.3 nM | < 40% | NC(=O)c1[nH]c2c(NC(=S)Nc3ccccc3)cc(Cl)cc2c1S(=O)(=O)N1CCO[C@H](COc2ccccc2)C1 [Compound 35, (S)-5-chloro-3-(2-(phenoxymethyl)morpholinosulfonyl)-7-(3-phenylthioureido)-1H-indole-2-carboxamide]
